Measurements: ChEMBL document CHEMBL6153127, “Cyclodepsipeptides and Fatty Acid Lactones from the Freshwater-Derived Fungus, Talaromyces gwangjuensis, and Their Potential as Autophagy Activators” (J Nat Prod, 2025)
The source made the active and inactive calls. The rule behind the calls is not given here.

Tests used:
Format in all cases: functional, cell-based
HEK293-A [1] = experiment: Cytotoxicity against HEK293-A cells expressing GFP-tagged LC3 assessed as cell viability at 10 uM incubated for 24 hrs by MTT assay; conditions: Homo sapiens
HEK293-A [2] = experiment: Regulation of autophagy in HEK293-A cells expressing GFP-tagged LC3 assessed as increase in green fluorescence at 10 uM incubated for 24 hrs by confocal microscopy; conditions: Homo sapiens
IMR-90 [3] = experiment: Induction of autophagy in human IMR-90 cells expressing GFP-mCherry-tagged LC3 assessed as increase in red puncta at 10 uM incubated for 24 hrs by DAPI staining based confocal microscopy
IMR-90 [4] = experiment: Induction of autophagic flux in human IMR-90 cells expressing GFP-mCherry-tagged LC3 assessed as accumulation of LC3B-II incubated for 6 hrs in presence of chloroquine by Western blot analysis; conditions: dose 1-20 µM

Structure (SMILES)	Activity (HEK293-A [1])	Activity (HEK293-A [2])	Activity (IMR-90 [3])	Activity (IMR-90 [4])
C=C1C(=O)O[C@H](CCCCCCCCCC)[C@H]1[C@@H](O)C(=O)OCC	inactive	–	–	–
CCCCCCCC[C@@H](COC(C)=O)[C@@H]1OC(=O)[C@H](CO)NC(=O)[C@H](C(=O)c2c[nH]c3ccccc23)NC(=O)[C@@H](CCC(=O)O)NC(=O)[C@H]1C	inactive	Active	Active	Dose-dependent-effect
CCCCCCCCCC[C@H](O)C1=C(COCC)C(=O)OC1	inactive	–	–	–
CCCCCCCCCCCC[C@H](O)[C@]1(O)[C@@H](COC)C(=O)O[C@H]1C(=O)O	inactive	–	–	–
CCCCCCCC[C@@H](C)[C@@H]1OC(=O)[C@H](CO)NC(=O)/C(=C/c2c[nH]c3ccccc23)NC(=O)[C@@H](CCC(=O)O)NC(=O)[C@H]1C	inactive	Active	Active	–
O=C(c1c[nH]c2ccccc12)C(O)CO (stereo not drawn)	inactive	–	–	–
CCCCCCCC[C@@H]1COC(=O)[C@H](CO)NC(=O)[C@H](C(=O)c2c[nH]c3ccccc23)NC(=O)[C@@H](CCC(=O)O)NC(=O)[C@@H](C)[C@H]1O	inactive	Active	–	–
CCCCCCCC[C@@H](C)[C@@H]1OC(=O)[C@H](CO)NC(=O)[C@H](C(=O)c2c[nH]c3ccccc23)NC(=O)[C@@H](CCC(=O)O)NC(=O)[C@H]1C	inactive	Active	–	–
C=C1C(=O)O[C@@H](C(=O)O)[C@@H]1CCCCCCCCCCC	Active	–	–	–
CCCCCCCC[C@@H](C)[C@@H]1OC(=O)[C@H](CO)NC(=O)[C@H](Cc2c[nH]c3ccccc23)NC(=O)[C@@H](CCC(=O)O)NC(=O)[C@H]1C	inactive	Active	Active	–
CCCCCCCC[C@@H](COC(C)=O)[C@@H]1OC(=O)[C@H](CO)NC(=O)[C@H](C(=O)c2c[nH]c3ccccc23)NC(=O)[C@@H](CCC(=O)OCC)NC(=O)[C@H]1C	inactive	Active	–	–
CCCCCCCC[C@@H](C)[C@@H]1OC(=O)[C@H](CO)NC(=O)[C@H](C(=O)c2c[nH]c3ccccc23)NC(=O)[C@@H](CCC(=O)OCC)NC(=O)[C@H]1C	inactive	Active	–	–
